# System: total serum bilirubin (TSB)
# Assay: Phase 2b trial: total serum bilirubin (TSB), adjusted and unadjusted, change from baseline
# Format: in vivo, human
# Design: total serum bilirubin / total serum bilirubin, Delta (change from baseline) / Change from baseline of total serum bilirubin: unit not given here
# Conditions: for total serum bilirubin / total serum bilirubin, Delta (change from baseline): 48 hours, preliminary data; for change from baseline in adjusted TSB, LS mean (SEM) / change from baseline in adjusted TSB, LS mean difference versus placebo / change from baseline in unadjusted TSB, LS Mean (SEM) / change from baseline in unadjusted TSB, LS Mean Difference versus placebo / change from baseline in adjusted TSB, LS mean (SEM) (primary endpoint): ANCOVA; for change from baseline in adjusted TSB, LS mean difference versus placebo, MMRM / change from baseline in adjusted TSB, LS means (SEM), MMRM: observed case
# Protocol: Three cohorts of subjects were recruited. This clinical study was designed to evaluate safety and efficacy parameters in each cohort.
# Scheduled assessments (including TSB) occurred before treatment and at 0.75 and 2 hours (or 1.5 and 3 hours, depending on PK blood sampling assignment); 6, 12, 24, 48, and 72 hours; and 14 and 30 (except TSB) days after treatment or early termination.
# The primary efficacy endpoint was the change in adjusted TSB from baseline to 48 hours after treatment. The adjusted TSB was a calculation of the percentage variance of the TSB level from the age specific threshold for PT initiation per the AAP Guidelines, i.e., an indication of the distance below the PT threshold by time.
# The Secondary Efficacy Endpoints were the change from baseline in unadjusted TSB at 48 hours after treatment, change from baseline in adjusted and unadjusted TSB at various other time points after treatment, percent change from baseline in unadjusted TSB, proportion of subjects who require PT/exchange transfusion (ET), time to PT/ET, duration of PT and time to hospital discharge.
# Intent-to-treat population (ITT): Defined as all subjects who were randomly assigned treatment in the clinical study, had received IMP, and had at least 1 post baseline TSB measurement during the first 48 hours after treatment. Subjects were summarized based on randomized treatment.
# Analysis of Efficacy Parameters: The primary efficacy analysis applied the analysis of covariance (ANCOVA) method to determine if there was a significant difference between treatment groups in change in adjusted TSB levels from baseline to 48 hours post baseline after controlling for the effects of gestational age and adjusted baseline TSB levels. If assumptions of ANCOVA appeared to be violated, a Wilcoxon rank-sum test could be performed instead. Time-to-event variables were analyzed using the Kaplan-Meier method, and Kaplan-Meier survival curves were presented.
# [1] = 1.5 mg/kg, 6 hrs, unadjusted TSB, ITT Population
# [2] = 1.5 mg/kg, 12 hrs, unadjusted TSB, ITT Population
# [3] = 1.5 mg/kg, 24 hrs, unadjusted TSB, ITT Population
# [4] = 1.5 mg/kg, 48 hrs, unadjusted TSB, ITT Population
# [5] = 1.5 mg/kg, baseline, PP Population
# [6] = 1.5 mg/kg, baseline, unadjusted TSB, ITT Population
# [7] = 3.0 mg/kg IM, 48 h/early termination, ITT, LOCF
substance,measurement,setting,value
tin IV mesoporphyrin IX dichloride [Stannsoporfin],"6 hrs TSB, Mean (SD)",[1],9.09 (2.175) mg/dL
same,"6 hrs TSB, Min",[1],5.1 mg/dL
same,"12 hrs Percent Change from Baseline in TSB, Max",[2],73.2%
same,"12 hrs Percent Change from Baseline in TSB, Mean (SD)",[2],29.91 (21.467) %
same,"12 hrs Percent Change from Baseline in TSB, Min",[2],−12.8%
same,"12 hrs TSB, Max",[2],14.3 mg/dL
same,"12 hrs TSB, Mean (SD)",[2],9.82 (2.599) mg/dL
same,"12 hrs TSB, Min",[2],5.6 mg/dL
same,"24 hrs Percent Change from Baseline in TSB, Max",[3],66.1%
same,"24 hrs Percent Change from Baseline in TSB, Mean (SD)",[3],30.23 (27.126) %
same,"24 hrs Percent Change from Baseline in TSB, Median",[3],38.20%
same,"24 hrs Percent Change from Baseline in TSB, Min",[3],−33.3%
same,"24 hrs TSB, Max",[3],12.2 mg/dL
same,"24 hrs TSB, Mean (SD)",[3],9.61 (2.566) mg/dL
same,"24 hrs TSB, Min",[3],5.2 mg/dL
same,"48 hrs Percent Change from Baseline in TSB, Max",[4],82.3%
same,"48 hrs Percent Change from Baseline in TSB, Mean (SD)",[4],32.71 (37.298) %
same,"48 hrs Percent Change from Baseline in TSB, Min",[4],−57.7%
same,"48 hrs TSB, Max",[4],13.5 mg/dL
same,"48 hrs TSB, Mean (SD)",[4],9.85 (3.208) mg/dL
same,"48 hrs TSB, Min",[4],3.3 mg/dL
same,mean TSB levels,"1.5 mg/kg, 14 days after treatment (text, not LOCF table)",3.06 mg/dL
same,"Baseline unadjusted TSB, Max",[5],12.0 mg/dL
same,"Baseline unadjusted TSB, Mean (SD)",[5],7.52 (2.030) mg/dL
same,"Baseline unadjusted TSB, Median",[5],7.35 mg/dL
same,"Baseline unadjusted TSB, Min",[5],4.3 mg/dL
same,"Baseline TSB, Max",[6],12.0 mg/dL
same,"Baseline TSB, Mean (SD)",[6],7.59 (1.816) mg/dL
same,"Baseline TSB, Min",[6],4.3 mg/dL
same,total serum bilirubin,"3.0 mg/kg IM (N = 13), treated per protocol",10.53 ± 2.9
same,"adjusted TSB, Mean (SD)","3.0 mg/kg IM, 6 h, ITT, LOCF",−13.20 (13.118) %
same,"change from baseline in adjusted TSB, Mean (SD)","3.0 mg/kg IM, 6 h, ITT, LOCF",2.72 (7.274) %
same,"change from baseline in adjusted TSB, Median","3.0 mg/kg IM, 6 h, ITT, LOCF",2.10%
same,"change from baseline in unadjusted TSB, Mean (SD)","3.0 mg/kg IM, 6 h, ITT, LOCF",1.53 (0.762) mg/dL
same,"change from baseline in unadjusted TSB, Median","3.0 mg/kg IM, 6 h, ITT, LOCF",1.35 mg/dL
same,"unadjusted TSB, Mean (SD)","3.0 mg/kg IM, 6 h, ITT, LOCF",9.74 (1.730) mg/dL
same,"unadjusted TSB, Median","3.0 mg/kg IM, 6 h, ITT, LOCF",9.90 mg/dL
same,"change from baseline in adjusted TSB, LS mean (SEM)","3.0 mg/kg IM, 6 h, ITT, LOCF",2.57 (2.186) %
same,"change from baseline in adjusted TSB, LS mean difference versus placebo","3.0 mg/kg IM, 6 h, ITT, LOCF",−1.82%
same,"change from baseline in unadjusted TSB, LS Mean (SEM)","3.0 mg/kg IM, 6 h, ITT, LOCF",1.39 (0.254) mg/dL
same,"change from baseline in unadjusted TSB, LS Mean Difference versus placebo","3.0 mg/kg IM, 6 h, ITT, LOCF",-0.20 mg/dL
same,"change from baseline in adjusted TSB, LS mean difference versus placebo, MMRM","3.0 mg/kg IM, 6 h, ITT",−1.69%
same,"change from baseline in adjusted TSB, LS means (SEM), MMRM","3.0 mg/kg IM, 6 h, ITT",2.68 (2.252) %
same,"adjusted TSB, Mean (SD)","3.0 mg/kg IM, 12 h, ITT, LOCF",−15.06 (13.787) %
same,"change from baseline in adjusted TSB, Mean (SD)","3.0 mg/kg IM, 12 h, ITT, LOCF",0.87 (9.503) %
same,"change from baseline in adjusted TSB, Median","3.0 mg/kg IM, 12 h, ITT, LOCF",1.55%
same,"change from baseline in unadjusted TSB, Mean (SD)","3.0 mg/kg IM, 12 h, ITT, LOCF",2.05 (1.004) mg/dL
same,"change from baseline in unadjusted TSB, Median","3.0 mg/kg IM, 12 h, ITT, LOCF",1.90 mg/dL
same,"unadjusted TSB, Mean (SD)","3.0 mg/kg IM, 12 h, ITT, LOCF",10.26 (1.748) mg/dL
same,"unadjusted TSB, Median","3.0 mg/kg IM, 12 h, ITT, LOCF",10.90 mg/dL
same,"change from baseline in adjusted TSB, LS mean (SEM)","3.0 mg/kg IM, 12 h, ITT, LOCF",2.64 (3.209) %
same,"change from baseline in adjusted TSB, LS mean difference versus placebo","3.0 mg/kg IM, 12 h, ITT, LOCF",−4.50%
same,"change from baseline in unadjusted TSB, LS Mean (SEM)","3.0 mg/kg IM, 12 h, ITT, LOCF",2.06 (0.393) mg/dL
same,"change from baseline in unadjusted TSB, LS Mean Difference versus placebo","3.0 mg/kg IM, 12 h, ITT, LOCF",-0.54 mg/dL
same,"change from baseline in adjusted TSB, LS mean difference versus placebo, MMRM","3.0 mg/kg IM, 12 h, ITT",−5.14%
same,"change from baseline in adjusted TSB, LS means (SEM), MMRM","3.0 mg/kg IM, 12 h, ITT",0.83 (2.821) %
same,"adjusted TSB, Mean (SD)","3.0 mg/kg IM, 24 h, ITT, LOCF",−24.46 (11.302) %
same,"change from baseline in adjusted TSB, Mean (SD)","3.0 mg/kg IM, 24 h, ITT, LOCF",−8.53 (16.045) %
same,"change from baseline in adjusted TSB, Median","3.0 mg/kg IM, 24 h, ITT, LOCF",−3.10%
same,"change from baseline in unadjusted TSB, Mean (SD)","3.0 mg/kg IM, 24 h, ITT, LOCF",1.85 (1.596) mg/dL
same,"change from baseline in unadjusted TSB, Median","3.0 mg/kg IM, 24 h, ITT, LOCF",2.08 mg/dL
same,"unadjusted TSB, Mean (SD)","3.0 mg/kg IM, 24 h, ITT, LOCF",10.06 (1.757) mg/dL
same,"unadjusted TSB, Median","3.0 mg/kg IM, 24 h, ITT, LOCF",10.45 mg/dL
same,"change from baseline in adjusted TSB, LS mean (SEM)","3.0 mg/kg IM, 24 h, ITT, LOCF",−9.21 (4.598) %
same,"change from baseline in adjusted TSB, LS mean difference versus placebo","3.0 mg/kg IM, 24 h, ITT, LOCF",−9.12%
same,"change from baseline in unadjusted TSB, LS Mean (SEM)","3.0 mg/kg IM, 24 h, ITT, LOCF",1.67 (0.578) mg/dL
same,"change from baseline in unadjusted TSB, LS Mean Difference versus placebo","3.0 mg/kg IM, 24 h, ITT, LOCF",-1.08 mg/dL
same,"change from baseline in adjusted TSB, LS mean difference versus placebo, MMRM","3.0 mg/kg IM, 24 h, ITT",−7.01%
same,"change from baseline in adjusted TSB, LS means (SEM), MMRM","3.0 mg/kg IM, 24 h, ITT",−8.57 (3.894) %
same,"adjusted TSB, Mean (SD)",[7],−31.80 (18.214) %
same,"adjusted TSB, Median",[7],−24.75%
same,"change from baseline in adjusted TSB, Mean (SD)","3.0 mg/kg IM, 48 h, ITT, LOCF",−15.88 (21.406) %
same,"change from baseline in adjusted TSB, Median","3.0 mg/kg IM, 48 h, ITT, LOCF",−9.05%
same,"change from baseline in unadjusted TSB, Mean (SD)","3.0 mg/kg IM, 48 h, ITT, LOCF",2.47 (2.703) mg/dL
same,"change from baseline in unadjusted TSB, Median","3.0 mg/kg IM, 48 h, ITT, LOCF",2.94 mg/dL
same,"unadjusted TSB, Mean (SD)","3.0 mg/kg IM, 48 h, ITT, LOCF",10.68 (2.956) mg/dL
same,"unadjusted TSB, Median","3.0 mg/kg IM, 48 h, ITT, LOCF",11.65 mg/dL
same,"change from baseline in adjusted TSB, LS mean (SEM) (primary endpoint)","3.0 mg/kg IM, 48 h, ITT, LOCF",−11.60 (5.612) %
same,"change from baseline in adjusted TSB, LS mean difference versus placebo","3.0 mg/kg IM, 48 h, ITT, LOCF",−10.02%
same,"change from baseline in unadjusted TSB, LS Mean (SEM)","3.0 mg/kg IM, 48 h, ITT, LOCF",2.90 (0.886) mg/dL
same,"change from baseline in unadjusted TSB, LS Mean Difference versus placebo","3.0 mg/kg IM, 48 h, ITT, LOCF",-1.34 mg/dL
same,"change from baseline in adjusted TSB, LS mean (SEM) (primary endpoint)","3.0 mg/kg IM, 48 h, ITT, LOCF, listed as stannsoporfin",11.6%
same,"change from baseline in adjusted TSB, LS mean difference versus placebo, MMRM","3.0 mg/kg IM, 48 h, ITT",−9.24%
same,"change from baseline in adjusted TSB, LS means (SEM), MMRM","3.0 mg/kg IM, 48 h, ITT",−15.92 (4.919) %
same,total serum bilirubin,"3.0 mg/kg IM, intent to treat",10.68 ± 3.0
same,"total serum bilirubin, Delta (change from baseline)","3.0 mg/kg IM, intent to treat",2.47 ± 2.7
same,"total serum bilirubin, Delta (change from baseline)","3.0 mg/kg IM, treated per protocol",2.20 ± 2.9
same,"adjusted TSB, Mean (SD)","3.0 mg/kg IM, 72 h/early termination, ITT, LOCF",−42.64 (21.640) %
same,"change from baseline in adjusted TSB, Mean (SD)","3.0 mg/kg IM, 72 h, ITT, LOCF",−26.72 (24.245) %
same,"change from baseline in adjusted TSB, Median","3.0 mg/kg IM, 72 h, ITT, LOCF",−17.30%

# From patent publication US20130158362A1 (INFACARE PHARMACEUTICAL CORPORATION, priority 2011, published 2013)
